# Assay results taken from US11014966B2, “Compounds and therapeutics uses thereof” (priority 2016, dated 2021).
# Assays:
# E. coli K12 [1] = format: cell-based; settings: 20 μM compound, human IgM M86 antibody 25 μg/mL, FC500, Method 1
# Description: Antibody Recruitment Assay by Flow Cytometry Using Anti-Alpha-Galactosyl IgM Antibody
# A secondary FITC labelled anti-human IgM antibody was used to detect binding of anti-alpha-galactosyl to the compound.
# (§1) The assays were carried out in polystyrene 96-well U bottom plates (Costar). The 96-well plates were pre-blocked with casein blocking buffer (Thermo Fisher 37528) and then washed three times with (HBSS+/+) (Life Technologies 14025-050) prior to assay. E. coli K12 (Public Health England, NCTC 10538) were grown in LB broth (Fisher BP1426-500) to late exponential phase. Subsequently, the bacteria were centrifuged at 10 000 rpm for 5 minutes and resuspended in HBSS+/+ at a bacterial density of 2*10^9 CFU/mL. […] After a final wash of 3×200 μL HBSS+/+ the bacteria were resuspended in 200 μL HBSS+/+ and evaluated on a FC500 (Beckman Coulter). Bacteria were live gated in the FL-4 channel and median fluorescent shift was recorded in the FL-1 channel. Data from all samples were analysed in the Kaluza software package (Beckman Coulter). […]
# (§2) The fold shift over background was calculated by dividing the Median Fluorescent Intensity obtained in the presence 20 μM Examples by the Median Fluorescence Intensity obtained in the absence of Examples. The shift in fluorescence intensity (FITC) occurs due to the binding event at each end of the molecule.
# E. coli K12 [2] = format: cell-based; settings: 20 μM compound, anti-alpha galactosyl IgG purified from human IVIG, 42 μg/mL
# Description: Antibody Recruitment Assay by Flow Cytometry Using Anti Alpha-Galactosyl IgG Antibody
# A secondary FITC labelled anti-human IgG antibody was used to detect binding of alpha-galactosyl to the compound.
# as §1, with “and resuspended HBSS+/+ at” for “and resuspended in HBSS+/+ at”
# as §2
compound,measurement,setting,value
CCCCCCCCC(=O)N[C@@H](CCNC(=O)c1cc(OCC(=O)NCCCO[C@@H]2OC(CO)[C@@H](O[C@@H]3OC(CO)[C@H](O)C(O[C@H]4OC(CO)[C@H](O)C(O)C4O)C3O)C(O)C2NC(C)=O)cc(-c2cc(OCC(=O)NCCCO[C@@H]3OC(CO)[C@@H](O[C@@H]4OC(CO)[C@H](O)C(O[C@H]5OC(CO)[C@H](O)C(O)C5O)C4O)C(O)C3NC(C)=O)cc(OCC(=O)NCCCO[C@@H]3OC(CO)[C@@H](O[C@@H]4OC(CO)[C@H](O)C(O[C@H]5OC(CO)[C@H](O)C(O)C5O)C4O)C(O)C3NC(C)=O)c2)c1)C(=O)N[C@H](C(=O)N[C@@H](CCN)C(=O)N[C@H]1CCNC(=O)[C@H]([C@@H](C)O)NC(=O)[C@H](CCN)NC(=O)[C@H](CCN)NC(=O)[C@H](CC(C)C)NC(=O)[C@@H](Cc2ccccc2)NC(=O)[C@H](CCN)NC1=O)[C@@H](C)O (some centres unmarked) [Example 10],Anti-alpha galactosyl IgM recruitment at 20 μM (Median Fold shift over vehicle),E. coli K12 [1],2 fold
same,Anti-alphagalactosyl IgG recruitment at 20 μM (Median Fold shift over vehicle),E. coli K12 [2],1 fold
